EP4523686A1, “A SIGMA-1 RECEPTOR POSITIVE MODULATOR FOR ITS USE IN THE PREVENTION AND THE TREATMENT OF A PATHOLOGY” (priority 2023, dated 2025)
Values joined by “and” are separate entries in the source; they are usually repeats but may differ in a detail not shown here. Equal entries are not always repeated.

What was measured:
SIG-1R = molecular target: T1, SIG-1R (Homo sapiens, UniProt Q99720); assay: In vitro binding to SIG-1R ([3H](+)-pentazocine, Jurkat cell membranes, CEREP); conditions: for inhibition of the binding / displacement of SIG-1R radioligand (in words): no concentration stated
T1 construct: incubated with 15 nM of [^3H](+)-pentazocine in membranes preparations from Jurkat human leukemic T cells; host or cells: Jurkat human leukemic T cells (membrane preparation)
Protocol: (§1) The assay was performed by CEREP (Celle l'Evescault, France) (study 100062023). SIG-1R binding was performed according to Ganapathy et al. (1999). Increasing drug concentrations (100 nM to 30 µM) were incubated with 15 nM of [^3H](+)-pentazocine in membranes preparations from Jurkat human leukemic T cells. Samples were incubated during 120 min at 37°C and nonspecific binding level was determined using 10 µM of haloperidol. S2R binding was performed according to Ganapathy et al. (1999). Increasing drug concentrations (100 nM to 30 µM) were incubated with 25 nM of [^3H]ditolyl-guanidine in membranes preparations from Jurkat human leukemic T cells. Samples were incubated during 60 min at room temperature and nonspecific binding level was determined using 10 µM of haloperidol. Assays were performed in duplicates and results were expressed as % of specific binding level.

S2R = molecular target: T2, S2R (Homo sapiens, UniProt Q5BJF2); assay: In vitro binding to S2R ([3H]ditolyl-guanidine, Jurkat cell membranes, CEREP); conditions: membranes from Jurkat human leukemic T cells, 25 nM radioligand; read-out: IC50 for [3H]DTG binding (S2R / SIG-2R affinity)
T2 construct: 25 nM of [^3H]ditolyl-guanidine in membranes preparations from Jurkat human leukemic T cells; host or cells: Jurkat human leukemic T cells (membrane preparation)
Protocol: as §1

[1] = system: Dizocilpine-induced learning impairments in mice; assay: Step-through passive avoidance, Dizocilpine-induced learning impairments; format: in vivo
Text: The apparatus is a two-compartments (15 × 20 × 15 cm high) box with one illuminated with white polyvinylchloride walls and the other darkened with black polyvinylchloride walls and a grid floor. A guillotine door separates each compartment. A 60 W lamp positioned 40 cm above the apparatus lights up the white compartment during the experiment. Scrambled foot shocks (0.3 mA for 3 s) could be delivered to the grid floor using a shock generator scrambler (Lafayette Instruments, Lafayette, USA). The guillotine door was initially closed during the training session. Each mouse was placed into the white compartment. After 5 s, the door was raised. When the mouse entered the darkened compartment and placed all its paws on the grid floor, the door is closed and the foot shocks delivered for 3 s. The step-through latency (STL-Tg), that is, the latency spent to enter the darkened compartment, and the number of vocalizations were recorded. The retention test was carried out 24 h after training. Each mouse was placed again into the white compartment. After 5 s, the door was raised. The step-through latency (STL-R) was recorded up to 300 s (Meunier et al., 2006, 2013; Villard et al., 2009, 2011). An exclusion criteria was STL-Tg and STL-R < 10 s. Animals showing these readouts are excluded from the calculations. Attrition is routinely < 5% in this test.

[2] = system: Aβ25-35-induced learning impairments in mice; assay: Active avoidance in the rectangular water-maze, Aβ25-35 model of Alzheimer's disease; format: in vivo
Protocol: Amyloid-β[25-35] peptide (Aβ25-35) was from Eurogentec (Angers, France). It was solubilized in distilled water at 3 mg/ml and stored at -20°C until use. Before injection, the peptide was incubated at 37°C for 4 days, allowing oligomerization. Control injection was performed with vehicle solution (distilled water), and intracerebroventricularly (ICV) injections were done as described previously (Maurice et al., 1996, 2019).
Non-spatial long-term memory was also examined using the successive training, place-learning procedure in the rectangular water-maze (Maurice et al., 1995, 2018). The apparatus is a black Plexiglas rectangular pool (30 × 60 × 36 cm high), filled with water at a high of 25 cm. The water temperature was maintained at 23 ± 1°C. A transparent Plexiglas platform (5 × 8.5 × 0.5 cm) was fixed in the southeast corner of the pool, 1 cm below the water surface. On acquisition days 1 and 2, each mouse was placed at the middle of the west side of the pool, facing the wall, and the latency to find the platform was recorded up to 60 s. The mouse was allowed to remain on it for 20 s, and then removed from the pool into its home cage. […] Each animal was run in this manner for a total of 5 trials on day 1, and 3 trials on day 2. […] A short-term memory (STM) index was defined as the mean difference in swimming duration between trial n and trial n-1 for trials 2 to 5 and 7 to 8. The STM index was analysed vs. zero level (= no improvement). On day 4, 48 h after the last training session, animals were tested for retention. The platform was removed. Each mouse was again placed at the starting point and observed for 60 s. The latency to reach the original platform location and the time spent on the platform location was recorded.
SIG-1R acting drugs are potent neuroprotective drugs in several neurodegenerative disease indications. Moreover, Blarcamesine, the drug presently tested in a clinical phase 3 assay (NCT04314934) was identified in the pharmacological model of AD induced in mice by ICV administration of oligomerized Aβ25-35 peptide (Villard et al., 2011). […]

Male Swiss mice = assay: Open field activity test (anxiolytic effect) and observation of animals; format: in vivo
Protocol: Drug administration: Route: intraperitoneal (IP), Method: by injection. The drug was administered under a volume calculated according to the individual body weight of each mouse (5 ml/kg), Frequency: once before the behavioral procedure, Treatment length: once, Timing: 30 minutes before behavioral procedure.
Health of animals was checked daily: general aspect of animals, activity, acute or delayed mortality. Weight was monitored the day of experiment.
The day of the test, animals were tested for general locomotor activity in the open field (OF) activity test for 10 min. The open field is made of opaque white plexiglass. The arena is composed of a large square box (50cm × 50cm × 50cm). Animal movements were followed by an overhead camera placed above the apparatus. Each mouse was placed in the center of the arena and allowed to move freely through the arena during its session. The locomotor activity was assessed by counting the total distance traveled measured in centimeters (cm) for the whole session time. The time spent in center area, and the number of defecations were also assessed.

T1 sequence (Q99720 whole entry): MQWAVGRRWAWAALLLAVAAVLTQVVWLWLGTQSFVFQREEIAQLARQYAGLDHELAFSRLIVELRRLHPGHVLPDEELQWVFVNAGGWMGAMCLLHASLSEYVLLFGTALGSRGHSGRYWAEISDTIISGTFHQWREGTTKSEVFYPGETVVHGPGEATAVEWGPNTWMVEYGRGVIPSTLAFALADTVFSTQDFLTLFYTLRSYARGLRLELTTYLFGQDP
T2 sequence (Q5BJF2 whole entry): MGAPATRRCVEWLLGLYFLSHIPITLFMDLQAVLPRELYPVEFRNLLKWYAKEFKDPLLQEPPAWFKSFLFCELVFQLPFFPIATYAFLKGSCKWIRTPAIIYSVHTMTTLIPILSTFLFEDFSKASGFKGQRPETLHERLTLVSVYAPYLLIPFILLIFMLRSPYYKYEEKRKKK

Structure (SMILES): COc1ccc(C(=O)OC2CC3CCC(C2)N3C)cc1OC (centres unmarked) [Convolamine, (8-methyl-8-azabicyclo[3.2.1]octan-3-yl) 3,4-dimethoxybenzoate]
- IC50 (SIG-1R): > 30 µM
- inhibition of [3H](+)-pentazocine binding to SIG-1R (in words) (SIG-1R; at concentrations < 10 µM): failed to inhibit
- inhibition of the binding / displacement of SIG-1R radioligand (in words) (SIG-1R): did not inhibit
- inhibition of the binding / displacement of SIG-1R radioligand (in words) (SIG-1R; listed as convolamine): does not displace
- IC50 (S2R): 13 µM and ~13 µM
- convolamine effect on step-through latency under NE-100 co-treatment (in words) ([1]; Convolamine 1 mg/Kg IP with NE-100 1 mg/Kg): blocked
- Dizocilpine-induced decrease of step-through latency (in words) ([1]; at 1 mg/kg IP): attenuated significantly
- Dizocilpine-induced increase of escape latency (in words) ([1]; at 0.3-3 mg/kg IP): attenuated significantly
- STM (short-term memory index) in Aβ25-35-treated mice (in words) ([2]; at 1 mg/kg): significantly increased
- Aβ25-35-induced decrease in number of platform location crossings (in words) ([2]; at 1 mg/kg IP): significantly attenuated
- Aβ25-35-induced increase in latency in the retention session (in words) ([2]; at 1 mg/kg IP): significantly attenuated
- percentage of locomotion in center of the arena (in words) (Male Swiss mice; IP 30 minutes before the test): increase
- time spent in the center of the arena (in words) (Male Swiss mice; IP 30 minutes before the test, compared to the vehicle-treated group): significant and bell-shaped increase
- mortality and adverse effect (in words) (Male Swiss mice; single IP injection, daily health check): No mortality nor adverse effect
